Format in all cases: in vivo, mouse
For test [1], the system named is SMA mice (FVB/NRj-SmnΔ7/Δ7 huSMN2+/+ 2 copies). The experiment in a line: Phenotypic analysis: weight and survival of severe SMA mice under daily gavage. An excerpt:
A severe SMA mouse model was used on an FVB/NRj gene pool, characterized by the invalidation of the exon 7 of the murine gene Smn and expressing 2 copies of the human transgene SMN2 (Smn^Δ7/Δ7; huSMN2^+/+) (Hsieh et al., 2000). The mice resulting from these crossings having the “FVB/NRj-Smn^Δ7/Δ7 huSMN2^+/+ 2 copies” genotype are described as “SMA”. These mice are characterized by progressive growth failure which is observed starting from 4 days post-natal and have a degeneration of about 50% of the motor neurons of the ventral horn of the spinal cord at the end of life, progressive muscular atrophy and an average lifespan of about 12 days (Hsieh et al., 2000). The mice having the “FVB/NRj-Smn^+/Δ7 huSMN2^++ 2 copies” genotype have no particular phenotype and are used as so-called “control” mice. The mice were treated via daily gavage of a dose of 50 mg/kg, either with the molecule BIO101 complexed to a vehicle (cyclodextrin in the present case), or with the vehicle alone (VH). The weight and the survival were analyzed on a daily basis until P11. In the rest of the description, n corresponds to the size of the sample and p corresponds to the “p value” used to quantify the statistical significance of a result.
The same type II murine model was used to characterize the phenotypic effects of the molecule BIO103 in a severe SMA model. The mice were treated via daily gavage of a dose of 50 mg/kg, either with the molecule BIO103 complexed with the vehicle (cyclodextrin in the present case), or with the vehicle alone (VH). The weight and the survival were analyzed on a daily basis until P11.

The test system of test [2] is muscles Soleus, Plantaris and Tibialis of SMA mice. The experiment in a line: Histological analysis of muscle cross-sections (Hematoxylin-Eosin): number and cross-section surface of muscle fibers. How it is done: At P11, one hour after their last gavage, the treated mice were anaesthetized with pentobarbital 1% at 6 μL/g of mouse then the extensor muscles Soleus, with a mixed typology, extensor Plantaris, with a fast typology, and flexor Tibialis, with a fast typology, were sampled in order to conduct histological or molecular studies. After sampling, the muscles Soleus, Plantaris and Tibialis were included individually in a preservation medium then frozen in cooled isopentane. For each muscle, medial cross-sections 10 μm thick were realized. These sections were stained with Hematoxyline-Eosin, dehydrated and mounted in an inclusion medium. The images of these sections were taken with a microscope (with a magnification ×200). In order to obtain images with an impression of relief, the differential interference contrast technique was used. From these images, the number of muscle fibers of each muscle and the cross-section surface of 20% of these fibers were counted using image processing software (FIG. 2).

Test [3] has as its system slow, intermediate and fast motor neurons of SMA mice. The experiment in a line: Motor neuron sub-populations (ChAT/ERRβ/MMP9 co-labeling, lumbar spinal cord). The procedure:
In a manner complementary to the quantitative analysis of the number of motor neurons and of the size of their soma as well as the qualitative study concerning their location (medial or lateral in the ventral spinal cord), we studied the impact of the treatment by BIO101 on the protection of the sub-populations of motor neurons (slow motor neurons, intermediate motor neurons and fast motor neurons). This qualitative analysis of the sub-populations of motor neurons was carried out on thick cross-sections of the lumbar region of the spinal cord (L1-L5) of control or SMA mice treated or not with BIO101 by immunofluorescent labeling with Choline Acetyltransferase such as was described hereinabove (Biondi et al., 2008; Branchu et al., 2013) as well as an analysis of the type of motor neurons by immunofluorescence co-labeling with Estrogen-related receptor-β (ERRβ), a specific marker of the slow motor neurons, or with Matrix metallopeptidase 9 (MMP9), a specific marker of the fast motor neurons.
The anesthetized mice underwent an intracardiac infusion with PBS. The spinal cords of the mice were taken, fixed then rinsed. The lumbar region of the spinal cords (L1-L5) was coated in a 4% solution of agarose. 50 μm cross-sections were made using a vibratome over the entire length of the sample. One section every 5 sections of spinal cord was then used for the immunohistochemical analyses. […]

A further test deals with SMA mice. Put plainly: Open-field test (spontaneous displacement capacities). How it is done: Phenotypic analyses of type 2 severe SMA mice treated or not starting from P0 with BIO101 were conducted. Longitudinally every two days, a test was conducted of the motor capacities of the mice from P5 to P9. The inventors evaluated the spontaneous displacement capacities by the open-field test, as well as the muscular fatigability by grip test, such as described hereinabove (Biondi et al., 2008; Branchu et al., 2013; Chali et al., 2016). The device used for the open-field test is different according to the age of the mice. For animals from P0 to P6, it is formed of a 15×15×5 cm plastic box with a grid pattern of the field divided into 25 3 cm×3 cm squares. For animals from P7 to P21, it is formed of a 28×28×5 cm plastic box with a grid pattern of the field divided into 16 7 cm×7 cm squares. The mice were tested individually and the evaluation device was washed after each session. Each mouse initially placed at the center of the field was able to move about freely for 5 minutes. The behavioral measurements are recorded by the experimenter during these 5 minutes and the total number of squares crossed was recorded.

`CC(C)(O)CC[C@@H](O)[C@](C)(O)[C@H]1CC[C@@]2(O)C3=CC(=O)[C@@H]4C[C@@H](O)[C@@H](O)C[C@]4(C)[C@H]3CC[C@]12C` [BIO101, 20-hydroxyecdysone]: the pre-P11 mortality result in test [1] (50 mg/kg daily gavage P0 to P11, versus vehicle, p<0.05) is “significantly reduces”. In addition, the “loss of weight of the animals” value in test [1] (50 mg/kg daily gavage from birth to P11, versus vehicle) is recorded as “significantly limit”. Further, the “proportion of muscle fibers with cross-section surface greater than 300 μm^2” value in test [2] (Plantaris, FIG. 13B) is “increase”; in test [2] (Soleus, FIG. 13C), “increase”. In addition, the “proportion of muscle fibers with cross-section surface less than 200 μm^2” value was “decrease” in test [2] (Plantaris, FIG. 13B) and “decrease” in test [2] (Soleus, FIG. 13C). The “atrophy of the muscle fibers (cross-section surface) in relation to healthy control mice” value in test [2] (Plantaris, P11, SMA mice treated P0 to P11 (SMA vehicle 46%)) came out at 17.9%; in test [2] (Soleus, P11, SMA mice treated P0 to P11 (SMA vehicle 50.2%)), 37.8%; in test [2] (Tibialis, P11, SMA mice treated P0 to P11 (SMA vehicle 56.1%)), 32.7%. In addition, the “proportion of fibers with cross-section surface between 0 and 100 μm^2” value in test [2] (Plantaris, versus SMA vehicle) is given as “decrease”. Moreover, the “proportion of fibers with cross-section surface between 200 and 400 μm^2” value in test [2] (Plantaris, versus SMA vehicle) is “increase”; in test [2] (Soleus, versus SMA vehicle) it was “increase”. For the same molecule, the “proportion of fibers with cross-section surface between 100 and 200 μm^2” value is reported as “decrease” in test [2] (Soleus, versus SMA vehicle) and “decreases significantly” in test [2] (Tibialis, versus SMA vehicle, p<0.05). Moreover, the “number of muscle fibers” value in test [2] (Tibialis, SMA mice treated P0 to P11, 50 mg/kg) is given as 2,358 fibers. In addition, the “increase in number of muscle fibers compared to vehicle” value in test [2] (Tibialis, SMA mice treated P0 to P11, p<0.05) turned out to be 14%. Also, the “proportion of fibers with cross-section surface between 400 and 800 μm^2” value in test [2] (Tibialis, versus SMA vehicle) was “significant increase”. In test [3] (SMA mice treated P0 to P11 (SMA vehicle 11), p<0.05), the “number of fast motor neurons (ChAT+MMP9+)” value is on record as 14. For the same molecule, in test [3] (between healthy vehicle, SMA vehicle and SMA treated groups), the “number of slow motor neurons (ChAT+ERRβ+)” value is listed as “does not vary significantly”. Further, the “number of squares crossed (open-field test)” value in the test with SMA mice (P5, SMA mice (vehicle 10)) came to 11 squares; with SMA mice (P7, SMA mice (vehicle 6), p<0.05), 10 squares; in the test on SMA mice (P9, SMA mice (vehicle 8), p=ns), 11 squares.

Source of the values: patent publication US12440500B2, “Phytoecdysones and the derivatives thereof for use in the treatment of neuromuscular diseases” (BIOPHYTIS, priority 2019, dated 2025).
